Tested on: skin
Assay: Skin compatibility, 48 h occlusive patch test, modified Draize evaluation
Details: 1% in water, 48 hours under occlusion, 50 test subjects
Description: In this procedure, the GLP Guidelines and the recommendations of the COLIPA work group (Walker A. P. et al.: Test Guidelines for Assessment of Skin Compatibility of Cosmetic Finished Products in Man, Food and Chemical Toxicology 34, 1996, pages 651 to 660) were observed.
The model noxious substance sodium lauryl sulfate at a concentration of 1% in water served as the positive control. Water itself served as the negative control.
The evaluation of the test reaction was carried out after 48 and 72 hours in accordance with the modified Draize test.

CCCCCCCCCCCCOS(=O)(=O)[O-].[Na+] [SDS, sodium lauryl sulfate]
positive reaction, number of test subjects: 14 test subjects
